Earlier results on two compounds are cited in US20040097717A1, “Control of aerial branching” (priority 2000, published 2004).

One series deals with lateral buds. Particulars: exogenous application to lateral buds (Tames et al., 1979).
In a further series the test system is Phaseolus vulgaris. Particulars: decapitated Phaseolus vulgaris, IAA application (Knox and Wareing, 1984).

For `CC1=CC(=O)CC(C)(C)[C@@]1(O)/C=C/C(C)=C\C(=O)O` [ABA, abscisic acid], in the series on lateral buds, the lateral bud elongation result was “inhibited elongation”. `O=C(O)Cc1c[nH]c2ccccc12` [IAA]: in the series with Phaseolus vulgaris, the “lateral bud elongation / decrease in ABA level after decapitation” value is “reversed”.
